Tests used:
DacA = target: T1, DacA (Bacillus subtilis, UniProt P08750); assay: HPLC-fluorescence of OTA hydrolysis; format: biochemical; details: 37 °C, optimal pH 7.0; amide bond hydrolysis to ochratoxin alpha
T1 construct: mature form without signal peptide (forward primer encodes Met-Ala-Ser-Asp)

DacB = target: T2, DacB (Bacillus subtilis, UniProt P35150); assay: HPLC-fluorescence of OTA hydrolysis; format: biochemical; details: 37 °C, optimal pH 7.5; amide bond hydrolysis to ochratoxin alpha
T2 construct: mature form without signal peptide (forward primer encodes Met-Ala-Ile-Asp-Val)
T2 sequence (P35150 28-382): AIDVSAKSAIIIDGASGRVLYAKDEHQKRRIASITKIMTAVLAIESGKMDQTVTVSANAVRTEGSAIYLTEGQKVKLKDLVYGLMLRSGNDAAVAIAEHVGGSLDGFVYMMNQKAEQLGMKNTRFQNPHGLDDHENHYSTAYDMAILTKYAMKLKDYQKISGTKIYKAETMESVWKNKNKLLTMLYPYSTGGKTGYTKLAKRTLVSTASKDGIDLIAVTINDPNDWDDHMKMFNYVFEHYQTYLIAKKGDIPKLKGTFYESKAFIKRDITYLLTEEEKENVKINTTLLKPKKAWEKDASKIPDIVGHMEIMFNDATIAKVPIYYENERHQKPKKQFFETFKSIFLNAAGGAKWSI

T1 sequence (P08750 32-443): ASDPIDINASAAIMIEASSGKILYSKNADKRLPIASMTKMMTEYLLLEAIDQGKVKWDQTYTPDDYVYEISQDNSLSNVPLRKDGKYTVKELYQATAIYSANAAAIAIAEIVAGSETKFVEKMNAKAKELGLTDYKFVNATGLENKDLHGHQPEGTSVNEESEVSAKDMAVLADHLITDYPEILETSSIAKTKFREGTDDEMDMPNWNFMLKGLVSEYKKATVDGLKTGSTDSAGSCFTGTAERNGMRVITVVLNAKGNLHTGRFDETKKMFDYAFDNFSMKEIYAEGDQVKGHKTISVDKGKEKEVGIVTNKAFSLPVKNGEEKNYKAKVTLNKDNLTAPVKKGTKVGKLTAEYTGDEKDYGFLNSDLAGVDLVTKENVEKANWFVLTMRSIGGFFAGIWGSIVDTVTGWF

C[C@@H]1Cc2c(Cl)cc(C(=O)N[C@@H](Cc3ccccc3)C(=O)O)c(O)c2C(=O)O1 [Ochratoxin A, 7-carboxyl-5-chloro-8-hydroxyl-3,4-dihydro-3R-methyl-isocoumarin-7-L-β-phenylalanine]
Km (DacA): 6.79 µM
Km (DacB): 2.82 µM

Source: PMC8584730, “Bacillus subtilis ANSB168 Producing D-alanyl-D-alanine Carboxypeptidase Could Alleviate the Immune Injury and Inflammation Induced by Ochratoxin A” (International Journal of Molecular Sciences, 2021)
